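Where inhibition never reached the appropriate level, the endpoint shown equals the highest concentration tested. Otherwise, values were interpolated linearly from a five-concentration, 48-hour dose response in 96-well plates. GI50 marks 50% less growth. TGI denotes the concentration required for complete inhibition of growth.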 Where a SMILES comes first, the peptide text is derived from it. Bridges are numbered along the chain shown (N, C = ends). Roman numbers before positions name the chains, in order. [ ]: non-standard residue; d: D form. The star is where a group is joined. Heptadecanoyl = CCCCCCCCCCCCCCCCC(=O)*; Phg = N[CH](C(=O)O)c1ccccc1 Some results are limits rather than exact numbers.

Among the test systems are HCT-116 colon; UO-31 renal; SF-268 CNS; KM12 colon; HL-60(TB) leukemia; NCI/ADR-RES ovarian; HT29 colon; UACC-62 melanoma; EKVX NSCLC; OVCAR-3 ovarian; U251 CNS.
Common to all, as to experiment: NCI tumour cell line growth inhibition, 48 h

Take `CN(C)C1COC2Cc3ccccc3C1O2` (stereo not drawn): the TGI in the assay on HCT-116 colon, in the assay with UO-31 renal, with SF-268 CNS, in the assay with KM12 colon, with HL-60(TB) leukemia and with NCI/ADR-RES ovarian was greater than 100 µM each time. Moreover, the TGI in the assay with HT29 colon, in the assay with UACC-62 melanoma, in the assay with EKVX NSCLC, with OVCAR-3 ovarian and in the assay on U251 CNS was greater than 100 µM each time.

For `CCCCCCCCCCCCCCCCC(=O)N1CCCC1C(=O)NCC(=O)NC(C(=O)N1CCCC1C(=O)NC(CO)C(=O)NC(Cc1ccc(O)cc1)C(=O)NC(CCCCNC(=O)C1CCCN1C(=O)C(CCCCN)NC(=O)C(CCCCN)NC(=O)C(CCCCN)NC(=O)C(CCCNC(=N)N)NC(=O)C(CCCCN)NC(=O)C(N)C(C)C)C(=O)NC(CC(C)C)C(=O)NC(CCCNC(=N)N)C(=O)N1CCCC1C(=O)NCC(N)=O)c1ccccc1` (stereo not drawn) (I: Heptadecanoyl-PG[Phg]PSYKLRPG-NH2 / II: H-VKRKKKP; amide I:7-II:C; configuration not given here), the GI50 with HCT-116 colon was 13 µM; in the assay with UO-31 renal, 32.4 µM; in the assay with SF-268 CNS it was 15 µM; with HL-60(TB) leukemia, 21.3 µM; in the assay with NCI/ADR-RES ovarian it was 26.2 µM; in the assay on HT29 colon, 29.6 µM. Also, the values for the GI50 in the assay with EKVX NSCLC and with OVCAR-3 ovarian were 27.7 µM and 27 µM, respectively. The TGI in the assay on HCT-116 colon is 43.8 µM; in the assay with UO-31 renal it was greater than 100 µM; with SF-268 CNS, greater than 100 µM; in the assay on HL-60(TB) leukemia, greater than 100 µM; in the assay with NCI/ADR-RES ovarian, 84 µM; with HT29 colon it was greater than 100 µM. The TGI was 84.4 µM with EKVX NSCLC and 71.2 µM in the assay on OVCAR-3 ovarian.

In the case of `C/C(=C\c1ccc2c(c1)OCO2)[N+](=O)[O-]`, the TGI was greater than 100 µM in the assay with HCT-116 colon; 10.7 µM in the assay with SF-268 CNS; 5.73 µM with HL-60(TB) leukemia; 37.9 µM in the assay on NCI/ADR-RES ovarian; 7.21 µM with HT29 colon; 4.83 µM in the assay with UACC-62 melanoma. In the assay with EKVX NSCLC, the TGI was 16.4 µM.

On to `Nc1nc(Cl)cc(NCC2(CO)CC(Cc3ccccc3)C2)n1` (stereo not drawn), for which the TGI in the assay on HCT-116 colon was greater than 100 µM; in the assay on UO-31 renal, greater than 100 µM; with SF-268 CNS, greater than 31.6 µM; in the assay on KM12 colon, greater than 100 µM; in the assay with HL-60(TB) leukemia, greater than 46.4 µM; in the assay on NCI/ADR-RES ovarian it was 65.5 µM. Moreover, the TGI is greater than 72.4 µM in the assay on HT29 colon; greater than 100 µM in the assay with UACC-62 melanoma; greater than 95.1 µM in the assay on EKVX NSCLC; greater than 100 µM with OVCAR-3 ovarian; greater than 100 µM with U251 CNS.

Turning to `CCOC(=O)C(SCCO)C(C(=O)OCC)n1cc(C)c(=O)[nH]c1=O` (stereo not drawn), the TGI in the assay with HCT-116 colon is 22.6 µM; in the assay on UO-31 renal it was greater than 62.8 µM; in the assay on SF-268 CNS, greater than 100 µM; with KM12 colon, greater than 63.1 µM; in the assay on HL-60(TB) leukemia it was 4.88 µM; in the assay with NCI/ADR-RES ovarian it was greater than 86.6 µM. The TGI was 32.2 µM in the assay with HT29 colon; 40 µM in the assay on UACC-62 melanoma; greater than 100 µM in the assay on EKVX NSCLC; 51.7 µM with OVCAR-3 ovarian; 36.5 µM in the assay on U251 CNS.

For the compound `CC1(C)CC[C@]2(C(=O)O)CC[C@]3(C)C(=CC[C@@H]4[C@@]5(C)CC[C@@H]6OC(C)(C)OC[C@@]6(C)[C@@H]5CC[C@]43C)[C@H]2C1`, the TGI in the assay with HCT-116 colon is 20.9 µM; with UO-31 renal it was 25.6 µM; in the assay with SF-268 CNS, 36.5 µM; in the assay on HL-60(TB) leukemia it was 32.9 µM; in the assay with NCI/ADR-RES ovarian it was greater than 100 µM; with HT29 colon it was 18.8 µM. Further, the TGI in the assay on UACC-62 melanoma is 25.4 µM; in the assay on EKVX NSCLC it was 19.4 µM; in the assay with OVCAR-3 ovarian it was 18.5 µM; in the assay with U251 CNS it was 20.4 µM.

In the case of `COc1cc(OC)nc(NC(=O)NS(=O)(=O)c2cccc3ncn(C)c(=O)c23)n1`, the TGI with HCT-116 colon, in the assay on UO-31 renal, in the assay with SF-268 CNS, in the assay on HL-60(TB) leukemia, in the assay on NCI/ADR-RES ovarian and in the assay with HT29 colon was greater than 100 µM each time. In addition, the TGI with UACC-62 melanoma, in the assay with EKVX NSCLC, in the assay with OVCAR-3 ovarian and in the assay with U251 CNS was greater than 100 µM throughout.

On to `Cc1ccc(S(=O)(=O)N/N=C2/CC[C@H](C(C)(C)C)C[C@@H]2C)cc1`, for which the TGI is 29.3 µM with HCT-116 colon; 26.6 µM in the assay with UO-31 renal; 49.7 µM with KM12 colon; greater than 100 µM in the assay with HL-60(TB) leukemia; 31.2 µM in the assay on NCI/ADR-RES ovarian; 30.7 µM with HT29 colon. The TGI in the assay with UACC-62 melanoma turned out to be 31.4 µM; in the assay on EKVX NSCLC it was 32.2 µM; with OVCAR-3 ovarian, 25.2 µM; in the assay with U251 CNS, 33.5 µM.

As for `CC1OC2OC3C(OCC(O)C3O)OC(=O)[C@]34CCC(C)(C)CC3C3=CCC5[C@@]6(C)C[C@H](O)[C@H](OC7OC(CO)C(O)C(O)C7OC7OC(COC(=O)CC(C)(O)CC(=O)OC1C(O)C2O)C(O)C(O)C7O)[C@@](C)(CO)C6CC[C@@]5(C)[C@]3(C)CC4` (stereo partly drawn), the TGI in the assay with HCT-116 colon was determined as 3.39 µM; with UO-31 renal it was 2.52 µM; in the assay with SF-268 CNS, 2.97 µM; in the assay with KM12 colon it was 2.89 µM; with HL-60(TB) leukemia it was 2.87 µM; in the assay with NCI/ADR-RES ovarian, 11.9 µM. The TGI is 3.18 µM in the assay with HT29 colon, 2.81 µM in the assay on UACC-62 melanoma, 3.15 µM in the assay on OVCAR-3 ovarian and 2.91 µM in the assay with U251 CNS.

Take `Cc1cc(-c2ccc(Cl)cc2)c(C#N)c(=S)n1C1OC(CO)C(O)C(O)C1O` (stereo not drawn): the TGI in the assay on HCT-116 colon, in the assay with SF-268 CNS, in the assay with KM12 colon, with HL-60(TB) leukemia, with NCI/ADR-RES ovarian and in the assay with HT29 colon was greater than 100 µM each time. For the same compound, the TGI with UACC-62 melanoma, with EKVX NSCLC and with OVCAR-3 ovarian was greater than 100 µM each time.

As to `Clc1ccc(N=Cc2cc3cc(Br)ccc3nc2Cl)cc1`, the TGI in the assay on HCT-116 colon is greater than 50 µM; in the assay with UO-31 renal, greater than 50 µM; with SF-268 CNS, greater than 50 µM; in the assay with KM12 colon, greater than 50 µM; with HL-60(TB) leukemia, 46.4 µM; in the assay on NCI/ADR-RES ovarian, greater than 50 µM. Besides, the TGI in the assay with HT29 colon and in the assay with EKVX NSCLC was greater than 50 µM each time.

For `O=C(Nc1ccc(F)cc1)c1cc2ccc(O)cc2oc1=Nc1cccc(F)c1`, the TGI in the assay with HCT-116 colon was greater than 100 µM; in the assay with SF-268 CNS it was greater than 100 µM; in the assay with KM12 colon, greater than 100 µM; in the assay on HL-60(TB) leukemia it was 83 µM; in the assay on NCI/ADR-RES ovarian it was greater than 100 µM; with HT29 colon it was greater than 100 µM. The TGI with UACC-62 melanoma was greater than 100 µM; in the assay on EKVX NSCLC, 64.4 µM; with OVCAR-3 ovarian, greater than 100 µM; in the assay on U251 CNS it was greater than 100 µM.
